Test results reported in patent publication US20230323355A1 (priority 2020, published 2023).

Test system: SARS-CoV-2 Wuhan virus (SARS-CoV-2-WA1 2020)
Assay: microbe, parasite or virus in culture
Format: cell-based

SMILES: CCC(CC)COC(=O)[C@H](C)N[P@](=O)(OC[C@H]1O[C@@](C#N)(c2ccc3c(N)ncnn23)[C@H](O)[C@@H]1O)Oc1ccccc1 [Remdesivir]
- fold reduction in SARS-CoV-2 replication: 1.5 fold
- inhibition of SARS-CoV-2 Wuhan: did not inhibit
- EC50 (Severe acute respiratory syndrome coronavirus 2, Vero C1008): ~800 nM
